Assay results taken from the NIST ThermoML archive (doi:10.1021/je800251v).

Conditions: Liquid

CCCC(=O)OCC [ethyl butanoate]
Conditions	mass density [kg/m3]
298.15 K, 100 kPa	873.3
298.15 K, 1000 kPa	874.1
298.15 K, 2000 kPa	875
298.15 K, 3000 kPa	875.9
298.15 K, 3100 kPa	876
298.15 K, 5000 kPa	877.5
298.15 K, 10000 kPa	881.5
298.15 K, 15000 kPa	885.3
298.15 K, 20000 kPa	889
298.15 K, 25000 kPa	892.5
298.15 K, 30000 kPa	896.9
298.15 K, 35000 kPa	901.4
303.15 K, 100 kPa	868.1
303.15 K, 1000 kPa	868.9
303.15 K, 2000 kPa	869.8
303.15 K, 3000 kPa	870.7
303.15 K, 3100 kPa	870.7
303.15 K, 5000 kPa	872.4
303.15 K, 10000 kPa	876.5
303.15 K, 15000 kPa	880.4
303.15 K, 20000 kPa	884.1
303.15 K, 25000 kPa	887.8
303.15 K, 30000 kPa	892.3
303.15 K, 35000 kPa	896.9
308.15 K, 100 kPa	862.6
308.15 K, 1000 kPa	863.5
308.15 K, 2000 kPa	864.4
308.15 K, 3000 kPa	865.3
308.15 K, 3100 kPa	865.4
308.15 K, 5000 kPa	867.1
308.15 K, 10000 kPa	871.4
308.15 K, 15000 kPa	875.5
308.15 K, 20000 kPa	879.4
308.15 K, 25000 kPa	883.1
308.15 K, 30000 kPa	887.8
308.15 K, 35000 kPa	892.5
313.15 K, 100 kPa	857.3
313.15 K, 1000 kPa	858.2
313.15 K, 2000 kPa	859.1
313.15 K, 3000 kPa	860.1
313.15 K, 3100 kPa	860.2
313.15 K, 5000 kPa	861.9
313.15 K, 10000 kPa	866.3
313.15 K, 15000 kPa	870.5
313.15 K, 20000 kPa	874.5
313.15 K, 25000 kPa	878.4
313.15 K, 30000 kPa	883.2
313.15 K, 35000 kPa	888.1
318.15 K, 100 kPa	851.9
318.15 K, 1000 kPa	852.8
318.15 K, 2000 kPa	853.8
318.15 K, 3000 kPa	854.8
318.15 K, 3100 kPa	854.9
318.15 K, 5000 kPa	856.7
318.15 K, 10000 kPa	861.3
318.15 K, 15000 kPa	865.8
318.15 K, 20000 kPa	869.9
318.15 K, 25000 kPa	874.1
318.15 K, 30000 kPa	879
318.15 K, 35000 kPa	884.1
323.15 K, 100 kPa	846.7
323.15 K, 1000 kPa	847.4
323.15 K, 2000 kPa	848.4
323.15 K, 3000 kPa	849.5
323.15 K, 3100 kPa	849.6
323.15 K, 5000 kPa	851.7
323.15 K, 10000 kPa	856.7
323.15 K, 15000 kPa	861.1
323.15 K, 20000 kPa	865.4
323.15 K, 25000 kPa	869.4
323.15 K, 30000 kPa	874.5
323.15 K, 35000 kPa	879.7
328.15 K, 100 kPa	841.4
328.15 K, 1000 kPa	842
328.15 K, 2000 kPa	843.3
328.15 K, 3000 kPa	844.5
328.15 K, 3100 kPa	844.6
328.15 K, 5000 kPa	846.6
328.15 K, 10000 kPa	851.5
328.15 K, 15000 kPa	856.2
328.15 K, 20000 kPa	860.5
328.15 K, 25000 kPa	864.8
328.15 K, 30000 kPa	870
328.15 K, 35000 kPa	875.3
333.15 K, 100 kPa	835.8
333.15 K, 1000 kPa	837
333.15 K, 2000 kPa	838.1
333.15 K, 3000 kPa	839.2
333.15 K, 3100 kPa	839.3
333.15 K, 5000 kPa	841.2
333.15 K, 10000 kPa	846.3
333.15 K, 15000 kPa	851.1
333.15 K, 20000 kPa	855.6
333.15 K, 25000 kPa	860.1
333.15 K, 30000 kPa	865.4
333.15 K, 35000 kPa	870.8
338.15 K, 100 kPa	830.3
338.15 K, 1000 kPa	831.5
338.15 K, 2000 kPa	832.6
338.15 K, 3000 kPa	833.8
338.15 K, 3100 kPa	833.9
338.15 K, 5000 kPa	835.9
338.15 K, 10000 kPa	841.2
338.15 K, 15000 kPa	846.2
338.15 K, 20000 kPa	850.8
338.15 K, 25000 kPa	855.5
338.15 K, 30000 kPa	861
338.15 K, 35000 kPa	866.5
343.15 K, 100 kPa	824.8
343.15 K, 1000 kPa	825.9
343.15 K, 2000 kPa	827.1
343.15 K, 3000 kPa	828.3
343.15 K, 3100 kPa	828.4
343.15 K, 5000 kPa	830.7
343.15 K, 10000 kPa	836.2
343.15 K, 15000 kPa	841.4
343.15 K, 20000 kPa	846.1
343.15 K, 25000 kPa	850.1
343.15 K, 30000 kPa	855.7
343.15 K, 35000 kPa	861.8
348.15 K, 100 kPa	819.1
348.15 K, 1000 kPa	820.3
348.15 K, 2000 kPa	821.6
348.15 K, 3000 kPa	822.9
348.15 K, 3100 kPa	823
348.15 K, 5000 kPa	825.1
348.15 K, 10000 kPa	830.9
348.15 K, 15000 kPa	836.2
348.15 K, 20000 kPa	841.1
348.15 K, 25000 kPa	846
348.15 K, 30000 kPa	851.8
348.15 K, 35000 kPa	857.7
353.15 K, 100 kPa	813.5
353.15 K, 1000 kPa	814.7
353.15 K, 2000 kPa	816.1
353.15 K, 3000 kPa	817.4
353.15 K, 3100 kPa	817.5
353.15 K, 5000 kPa	819.8
353.15 K, 10000 kPa	825.7
353.15 K, 15000 kPa	831.2
353.15 K, 20000 kPa	836.3
353.15 K, 25000 kPa	841.4
353.15 K, 30000 kPa	847.4
353.15 K, 35000 kPa	853.4
363.15 K, 100 kPa	799.9
363.15 K, 1000 kPa	801.4
363.15 K, 2000 kPa	803
363.15 K, 3000 kPa	804.5
363.15 K, 3100 kPa	804.7
363.15 K, 5000 kPa	807.9
363.15 K, 10000 kPa	814.4
363.15 K, 15000 kPa	820.7
363.15 K, 20000 kPa	826.7
363.15 K, 25000 kPa	832.4
363.15 K, 30000 kPa	837.7
363.15 K, 35000 kPa	842.7
373.15 K, 100 kPa	788.5
373.15 K, 1000 kPa	790.1
373.15 K, 2000 kPa	791.7
373.15 K, 3000 kPa	793.4
373.15 K, 3100 kPa	793.6
373.15 K, 5000 kPa	796.8
373.15 K, 10000 kPa	804
373.15 K, 15000 kPa	810.8
373.15 K, 20000 kPa	817.2
373.15 K, 25000 kPa	823.1
373.15 K, 30000 kPa	828.7
373.15 K, 35000 kPa	834
383.15 K, 100 kPa	776.9
383.15 K, 1000 kPa	778.6
383.15 K, 2000 kPa	780.4
383.15 K, 3000 kPa	782.2
383.15 K, 3100 kPa	782.4
383.15 K, 5000 kPa	785.5
383.15 K, 10000 kPa	793.5
383.15 K, 15000 kPa	800.8
383.15 K, 20000 kPa	807.5
383.15 K, 25000 kPa	813.8
383.15 K, 30000 kPa	819.6
383.15 K, 35000 kPa	825.2
393.15 K, 100 kPa	765.1
393.15 K, 1000 kPa	766.9
393.15 K, 2000 kPa	768.8
393.15 K, 3000 kPa	770.8
393.15 K, 3100 kPa	771
393.15 K, 5000 kPa	774.5
393.15 K, 10000 kPa	783.1
393.15 K, 15000 kPa	790.9
393.15 K, 20000 kPa	798
393.15 K, 25000 kPa	804.6
393.15 K, 30000 kPa	810.7
393.15 K, 35000 kPa	816.6
